# Tested on: NAD(P)H oxidases (NOX) in HL-60 cells
# Assay: Assay of NOX activity: cytochrome C reduction in PMA-stimulated differentiated HL-60 cells
# Format: cell-based, human
# Conditions: 100 U/ml superoxide dismutase, used as a control in some experiments
# Experimental: (§1) Measurement of cytochrome C-reduction was used to assess the NOX-activity in HL-60 cells.
# (§2) The human acute myeloid leukemia cell line HL-60 (ECACC 98070106) was cultured in RPMI 1640 (Biochrom, Berlin, Germany) supplemented with 5% heat-inactivated calf serum, 2 mM glutamine (GLUTAMAX, Invitrogen, Karlsruhe, Germany), 100 U/ml penicillin (Sigma, Taufkirchen, Germany), and 100 μg/ml streptomycin (Sigma, Taufkirchen, Germany) at 37° C. under a humidified atmosphere of 5% CO2. Cells were maintained at 0.1−2.0×10^6 cells/ml. To induce myeloid differentiation, the cells were seeded to a density of 0.5×10^6 cells/ml and cultivated for 6 days in medium containing 1.25% (v/v) dimethylsulfoxide (DMSO). […]
# (§3) E550 and E540 were measured once before stimulation of the cells on a micro-plate reader (Multiskan Spektrum, Thermo Electron Corporation, Dreieich, Germany). E540 was the isosbestic point and used to normalize absorbance at 550 nm (E550/E540). […]
# (§4) The plate was shaken for 10 sec in the micro-plate reader and then incubated at 37° C. under a humidified atmosphere of 5% CO2. E550 and E540 were measured after 60 and 120 min.
# (§5) For calculation, the absorbance at 550 nm was normalized to absorbance at the isosbestic point at 540 nm for each individual well. […] NOX-activities were expressed as % of the activity in PMA-stimulated control cells. […]
row,Compound,Inhibition of the signal by SOD
1,"SOD: superoxide dismutase from bovine erythrocytes, EC1.15.1.1, used as a control",> 95%

# Molecular target: NAD(P)H oxidases (NOX) in HL-60 cells (Homo sapiens, UniProt P04839)
# Assay: as above
# Format: cell-based
# Conditions: HL-60; DPI final conc. 10 μM, control inhibitor; 'usually'; read-out: Residual activity of DPI-treated cells (NOX activity as % of the activity in PMA-stimulated control cells)
# Experimental: as §1, §2, §3, §4, §5
# Sequence of NAD(P)H oxidases (NOX) in HL-60 cells (Homo sapiens, UniProt P04839) (P04839 whole entry): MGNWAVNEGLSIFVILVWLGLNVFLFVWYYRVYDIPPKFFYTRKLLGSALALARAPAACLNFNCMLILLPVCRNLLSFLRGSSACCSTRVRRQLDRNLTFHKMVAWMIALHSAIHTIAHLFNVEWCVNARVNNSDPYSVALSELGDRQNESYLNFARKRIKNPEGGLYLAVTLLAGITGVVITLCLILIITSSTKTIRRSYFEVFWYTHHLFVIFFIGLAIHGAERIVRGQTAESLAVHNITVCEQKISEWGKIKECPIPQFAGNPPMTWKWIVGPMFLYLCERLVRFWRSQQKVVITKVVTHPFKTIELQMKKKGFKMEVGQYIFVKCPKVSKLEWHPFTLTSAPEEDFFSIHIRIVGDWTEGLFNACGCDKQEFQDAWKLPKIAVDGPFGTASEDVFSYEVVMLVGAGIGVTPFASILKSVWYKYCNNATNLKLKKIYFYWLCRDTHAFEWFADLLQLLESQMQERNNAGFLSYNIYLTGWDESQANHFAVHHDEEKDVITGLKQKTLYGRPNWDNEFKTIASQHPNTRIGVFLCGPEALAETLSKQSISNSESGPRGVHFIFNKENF
row,Compound,activity at 10 µM
1,"c1ccc2c(c1)[I+]c1ccccc1-2 [DPI, Diphenyleneiodonium chloride]",< 10%

# Tested on: platelets
# Assay: Inhibition of thrombin-induced (TRAP-6) platelet activation: P-Selectin expression on washed platelets, flow cytometry
# Format: cell-based
# Conditions: Homo sapiens, 5 μmol/l compound, 1 min pre-incubation, washed platelets stimulated 2 min with TRAP-6, read-out: % Inhibition of activation (percent reduction of TRAP-6 induced P-Selectin expression)
# Experimental: Expression of P-Selectin on the surface of platelets was used as a marker of platelet activation.
# All experiments were performed with washed platelets (PRP). Fresh venous blood from healthy volunteers (40 ml) was collected into 10 ml of 5-fold CCD-solution (7 mM citric acid, 100 mM trisodium citrate, 140 mM glucose, 15 mM EGTA as anti-coagulant, pH 6.5). Platelet rich plasma was prepared by centrifugation at 300 g for 20 min. The supernatant was collected and incubated for 10 min at room temperature. Platelets were pelleted from the supernatant by a second centrifugation step at 500 g for 20 min. The pellet was resuspended in 5 ml HEPES buffer (145 in M NaCl, 5 mM KCl, 1 in M MgCl2, 10 mM glucose, 10 mM HEPES, pH 7.4). Platelet concentration was adjusted to 3×10^8 platelets/ml with HEPES buffer.
# Washed platelets (0.2 ml) were silenced for 1 h at room temperature in siliconised reaction tubes. After pre-incubation with compounds of example 1-11 for 1 min the washed platelets were stimulated for 2 min with thrombin receptor activating peptide (TRAP-6, BACHEM Biochemicals, Heidelberg, Germany).
# As a positive control, 0.2 ml of washed platelets were pre-incubated with 10 μM of the NO-releasing compound sodium nitroprussid (SNP, Sigma, Deisenhofen).
# After incubation, 20 μl of the sample was pipetted to 10 μl of FITC-labelled anti-CD62P antibody (DAKO, Glostrup, Denmark) and incubated for 15 min in the dark. After incubation the samples were diluted with 1.5 ml of phosphate buffered saline and immediately measured on a cytometer.
# For background substraction, one sample was incubated with 10 μl of FITC-labelled un-specific mouse IgG1 (DAKO, Glostrup, Denmark).
# For cytometry the Becton-Dickinson FACS-Calibur instrument (settings: FSC: E00; SSC: 337 V; FL-1:600 V) was used. For each measurement 20000 cells were analysed. Results were obtained as mean fluorescence intensity (MFI) calculated using the CellQuest program (Ver. 1.0; Becton-Dickinson).
# Inhibition of platelet activation is given as percent reduction of TRAP-6 induced P-Selectin expression in the presence of 5 μmol/l of examples 1-11: […]
row,Compound,inhibition at 5 µM
1,"c1ccc(Cn2nnc3c(Sc4nc5ccccc5o4)ncnc32)cc1 [Example 1, 3-benzyl-7-(2-benzoxazolyl)thio-1,2,3-triazolo[4,5-d]pyrimidine]",49%
2,"c1ccc(Cn2nnc3c(Sc4ccccn4)ncnc32)cc1 [Example 2, 3-benzyl-7-(2-pyridyl)thio-1,2,3-triazolo-[4,5-d]pyrimidine]",34%
3,"c1ccc(Cn2nnc3c(Sc4ncco4)ncnc32)cc1 [Example 3, 3-benzyl-7-(2-oxazolyl)thio-1,2,3-triazolo[4,5-d]pyrimidine]",55%
4,"c1ccc(Cn2nnc3c(Sc4nccs4)ncnc32)cc1 [Example 4, 3-benzyl-7-(2-thiazolyl)thio-1,2,3-triazolo[4,5-d]pyrimidine]",45%
5,"c1ccc(Cn2nnc3c(Sc4ncc[nH]4)ncnc32)cc1 [Example 5, 3-benzyl-7-(2-imidazolyl)thio-1,2,3-triazolo[4,5-d]pyrimidine]",21%
6,"Cc1nc(Sc2nc3ccccc3o2)c2nnn(Cc3ccccc3)c2n1 [Example 6, 3-benzyl-7-(2-benzoxazolyl)thio-5-methyl-1,2,3-triazolo[4,5-d]pyrimidine]",39%
7,"Cn1nnc2c(Sc3nc4ccccc4o3)ncnc21 [Example 8, 7-(2-benzoxazolyl)thio-3-methyl-1,2,3-triazolo[4,5-d]pyrimidine]",38%
8,"c1ccc(-n2nnc3c(Sc4nc5ccccc5o4)ncnc32)cc1 [Example 9, 7-(2-benzoxazolyl)thio-3-phenyl-1,2,3-triazolo[4,5-d]pyrimidine]",44%
9,"COc1ccc(Cn2nnc3c(Sc4nc5ccccc5o4)ncnc32)cc1 [Example 10, 7-(2-benzoxazolyl)thio-3-p-methoxybenzyl-1,2,3-triazolo[4,5-d]pyrimidine]",60%
10,"Clc1ccccc1Cn1nnc2c(Sc3nc4ccccc4o3)ncnc21 [Example 11, 7-(2-benzoxazolyl)thio-3-o-chlorobenzyl-1,2,3-triazolo[4,5-d]pyrimidine]",80%

# — patent publication US8236809B2, “Substituted 1,2,3-triazolopyrimidines for the inhibition of NAD(P)H oxidases and platelet activation” (Vasopharm GmbH, priority 2004, dated 2012)
